Experimental findings from article PMC9386001, “Identification of naturally occurring inhibitors in Xian-Ling-Gu-Bao capsule against the glucuronidation of estrogens” (Frontiers in Pharmacology, 2022) are described below.

In data set [1] the test system is human intestine microsomes (HIM). Briefly: Estrogen glucuronidation kinetics by HIM. In kind it is in vitro ADME. As to conditions: HIM. How it is done:
(§1) All experiments were performed in triplicate.
(§2) Vg=Cs∗V/Cprotein∗T∗Vprotein. […] (5)

Data set [2] is described as follows: Estrogen glucuronidation kinetics by HIM. The note with it: human, human intestine microsomes, pH 7.4, HIM, read-out: CL int or CL max. In kind it is in vitro ADME, human. Here is the method: as §1, §2
The target in another data set is T1, UGT2B7 (Homo sapiens, UniProt P16662).
T1 sequence (P16662 24-529): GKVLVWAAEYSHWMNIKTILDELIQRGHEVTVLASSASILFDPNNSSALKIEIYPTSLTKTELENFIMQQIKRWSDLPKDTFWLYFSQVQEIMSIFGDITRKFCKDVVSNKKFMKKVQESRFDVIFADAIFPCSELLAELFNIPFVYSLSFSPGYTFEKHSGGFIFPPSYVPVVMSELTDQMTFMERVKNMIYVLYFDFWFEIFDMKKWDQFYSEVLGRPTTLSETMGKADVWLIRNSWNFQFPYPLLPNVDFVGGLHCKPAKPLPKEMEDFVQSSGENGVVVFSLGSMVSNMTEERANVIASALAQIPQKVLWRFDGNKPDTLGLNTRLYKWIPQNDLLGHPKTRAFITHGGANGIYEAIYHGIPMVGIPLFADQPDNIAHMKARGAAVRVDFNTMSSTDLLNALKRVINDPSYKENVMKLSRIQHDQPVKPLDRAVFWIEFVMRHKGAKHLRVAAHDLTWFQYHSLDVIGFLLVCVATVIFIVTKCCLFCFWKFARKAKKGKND
Put plainly: Estrogen glucuronidation kinetics by expressed UGT2B7. As to conditions: recombinant (expressed) UGT2B7, pH 7.4.

The subject of data set [3] is human liver microsomes (HLM). Put plainly: Estrogen glucuronidation kinetics by HLM. In kind it is in vitro ADME. As to conditions: HLM. How it is done:
(§3) In brief, incubation mixtures (100 μL) contained Tris-HCl buffer solution (50 mM, pH = 7.4), microsomes (HLM, HIM, 0.5 mg/ml) or UGT enzymes (1 mg/ml), MgCl2 (0.88 mM), alamethicin (22 μg/ml), and D-saccharic-1,4-lactone (4.4 mM) and respective substrate. The volume of organic solvent in incubation mixtures was kept below 1%. After pre-incubation at 37°C for 5 min, the reaction was commenced with the addition of UDPGA (4 mM) and subsequently incubated at 37°C for a period. The reaction was terminated by adding 100 μL of cold acetonitrile. Then, the incubation mixtures were vortexed and centrifuged at 13,800 g for 10 min to collect the supernatant for analysis.
as §1
(§4) Glucuronidation rates were expressed as the amounts of formed metabolites per minute per milligram protein (pmol/min/mg protein) based on Eq. 1. Furthermore, kinetic characteristics were evaluated from the suitable curves based on the profile of the Eadie–Hofstee plot, and corresponding kinetic parameters were estimated using Eqs 2–4. Appropriated model fitting was performed by GraphPad Prism V5 software (San Diego, CA).
(§5) The intrinsic clearance (CL int ) was derived from V max /K m for Michaelis–Menten and substrate inhibition models, and the maximal clearance (CL max ) was obtained using Eq. 5 for Hill kinetics. Vg=Cs∗V/Cprotein∗T∗Vprotein. (1) V=Vmax×[S]/Km+[S], (2) V=Vmax×[S]/Km+[S](1+[S]/Ksi), (3) V=Vmax×[S]^n/S50n[…], (4) CLmax=Vmax/S50×n−1/n(n−1)^1/n. (5)

Data set [4] in a line: Estrogen glucuronidation kinetics by HLM. In kind it is in vitro ADME, human. As to conditions: human, human liver microsomes, pH 7.4, HLM, read-out: CL int or CL max. Here is the method:
as §3, §1, §4, §5
(Microsomes from liver hold many membrane-bound enzymes, among them those of drug oxidation.)

Structures are written as SMILES.

With `C[C@]12CC[C@@H]3c4ccc(O)cc4CC[C@H]3[C@@H]1C[C@@H](O)[C@@H]2O` [E3, estriol], the “K m or S50” value in data set [1] (3-O-glucuronide formation) was 50.18 ± 4.40 µM; in data set [1] (16-O-glucuronide formation), 11.59 ± 0.49 µM; in data set [3] (3-O-glucuronide formation) it was 86.1 ± 12.39 µM; in data set [3] (16-O-glucuronide formation), 11.91 ± 0.60 µM. Moreover, the microsomal CLint turned out to be 10.74 ± 0.1 µL/min/mg in data set [2] (3-O-glucuronide formation); 109.4 ± 0.04 µL/min/mg in data set [2] (16-O-glucuronide formation); 793.8 ± 0.07 µL/min/mg at UGT2B7; 1.58 ± 0.16 µL/min/mg in data set [4] (3-O-glucuronide formation); 542.32 ± 0.05 µL/min/mg in data set [4] (16-O-glucuronide formation).
